The values below come from patent publication US12274761B2, “Compositions and methods to detect GLUA1 in brain and to identify the presence of GLUA1-mediated PTSD” (Neurovation Labs, Inc., priority 2016, dated 2025).

Molecules are shown by their SMILES. Entries after “also recorded” stand apart in the source; their conditions may differ.

Test [1] deals with GluN1 subunit of the N-methyl-D-aspartate receptor (NMDAR). Briefly: Western blot of GluN1 protein in the BLA after SEFL trauma. The test is classed as in vivo. The conditions noted are these: measured three weeks after the trauma; stressed and unstressed rats. How it is done: (§1) FIGS. 1B-D depict representative Western blot images and graphs of relative optical density ratios (±standard error of the mean (SEM)) of GluA1, GluA2, and GluN1, respectively, and a glyceraldehyde 3-phosphate dehydrogenase (GAPDH) control. […] Glutamate receptor protein changes were measured three weeks after the initial trauma via Western blotting. While the GluA2 subunit of the AMPAR and the GluN1 subunit of the N-methyl-D-aspartate receptor (NMDAR) remained unchanged after trauma, GluA1 increased substantially.
(§2) FIG. 1A illustrates an experimental design using SEFL (7, 8). Protein levels were measured using Western blot, an analytical technique to detect specific proteins in tissue samples.
FIG. 1D depicts representative Western blot images of GluN1 and GAPDH from the BLA of stressed and unstressed rats, measured three weeks after the trauma.
(In western blotting, separated proteins are transferred to a membrane and probed.)

For test [2], the system named is Stress-Enhanced Fear Learning (SEFL). Briefly: Stress-Enhanced Fear Learning (SEFL), a rodent model of PTSD: freezing in Context B. It counts as in vivo, rats. From the text: FIG. 1A illustrates an experimental design for Stress-Enhanced Fear Learning (SEFL), a rodent model of PTSD. FIG. 2A illustrates an abbreviated SEFL experimental design. […] FIG. 3A illustrates a SEFL experimental design. […] FIG. 2C depicts representative Western blot images of GluA1 and GAPDH from the BLA of stressed/MSO and stressed/ASO rats. FIG. 2D depicts mean GluA1: GAPDH optical density ratios (±SEM) from the BLA of stressed/MSO and stressed/ASO rats. […] FIG. 2E depicts mean (±SEM) percent freezing in Context B on Day 3. […] FIG. 3C depicts mean freezing (±SEM) in Context B on Day 3.

In test [3] the test system is GluA2 subunit of the AMPAR. Kind of test: Western blot of GluA2 protein in the BLA after SEFL trauma. The test is classed as in vivo. To be noted: measured three weeks after the trauma; stressed and unstressed rats. Here is the method: as §1, §2
FIG. 1C depicts representative Western blot images of GluA2 and GAPDH from the BLA of stressed and unstressed rats, measured three weeks after the trauma.

Test [4] has as its system GluA1 protein in the basolateral amygdala (BLA). Kind of test: Western blot of GluA1 protein in the BLA after SEFL trauma. The test is classed as in vivo. The conditions noted are these: metyrapone given before the trauma, measured three weeks after the trauma, stressed rats. How it is done: FIG. 1A illustrates an experimental design for Stress-Enhanced Fear Learning (SEFL), a rodent model of PTSD.
as §1, §2
FIG. 1B depicts representative Western blot images of GluA1 and a control, GAPDH, from the BLA of stressed and unstressed rats, measured three weeks after the trauma.
Because GluA1 increases are observed weeks after the trauma, post-trauma GluA1 ASO infusions directly into the BLA prevented sensitized fear responses usually observed in SEFL (FIGS. 2A-E) (5). […] FIG. 2C depicts representative Western blot images of GluA1 and GAPDH from the BLA of stressed/MSO and stressed/ASO rats. […]

For the molecule `CC(C)(C(=O)c1cccnc1)c1cccnc1` [Metyrapone], the “GluN1: GAPDH optical density ratios in the BLA (GluN1 levels)” value in test [1] is “Neither stress nor metyrapone had an effect on GluN1 levels”. Also, the “SEFL (stress-enhanced fear learning)” value in test [2] (given before the trauma) is “effectively preventing SEFL”. In test [3], the “GluA2: GAPDH optical density ratios in the BLA (GluA2 levels)” value is reported as “Neither stress nor metyrapone had an effect on GluA2 levels”. The “GluA1: GAPDH optical density ratios in the BLA” value in test [4] was “prevented GluA1 increases and conferred levels to that of unstressed controls”; in test [4] (listed as metyrapone), “GluA1 protein levels in the BLA were significantly higher in stressed rats than in unstressed rats and metyrapone-treated rats”.
`Br.C[N+](C)(C)CCCCCNCC12CC3CC(CC(C3)C1)C2.[Br-]` [IEM-1460, N,N,H,-Trimethyl-5-[(tricyclo[3.3.1.13,7]dec-1-ylmethyl)amino]-1-pentanaminiumbromide hydrobromide]: the “percent freezing in Context B on Day 3 (sensitized fear, SEFL)” value in test [2] (intra-BLA infusion after the 15-shock stressor (post-trauma), compared with stressed controls, hydrobromide) is reported as “significantly reduces freezing in Context B; also recorded: attenuate SEFL”.
